Source: patent publication US8921318B2, “Application of initial doses of LHRH analogues and maintenance doses of LHRH antagonists for the treatment of hormone-dependent cancers and corresponding pharmaceutical kits” (Aeterna Zentaris GmbH, priority 2006, dated 2014)

Columns and labels:
[1] = tested on: testosterone levels; assay: Testosterone levels in prostate cancer patients under initial dose / maintenance dose treatment; type: in vivo, human; details: for testosterone levels during first period: prostate cancer patients
Protocol: (§1) 130 mg ozarelix is given as a single monthly initial dose per i.m. injection every 4 weeks to patients suffering from prostate cancer for a first period of 3 months. […] Subsequently, patients are treated with single monthly maintenance doses of 30 mg ozarelix given per i.m. injection over a period of 6 months. […] The treatment scheme is then repeated continuously (chronic treatment).
(§2) 200 mg ozarelix is given as a single initial dose per i.m. injection once every 3 months to patients suffering from prostate cancer for a first period of 3 to 6 months. […] Subsequently, patients are treated with single monthly maintenance doses of 40 mg ozarelix given per i.m. injection over a period of 6 months. […] The treatment scheme is then repeated continuously (chronic treatment).
as §1, with “3.75” for “130”, “leuprorelin (leuprolide) are” for “ozarelix is”, “6” for “3”, “20” for “30”, “9” for “6”
as §2, with “11.25” for “200”, “leuprorelin (leuprolide) are” for “ozarelix is”, “three” for “3”, “3” for “3 to 6”, “50” for “40”, “3” for “6”

[2] = tested on: Prostate Specific Antigen (PSA); assay: PSA levels in prostate cancer patients under initial dose / maintenance dose treatment; type: in vivo, human; details: for PSA levels decrease during first period: prostate cancer patients
Protocol: as §1, §2
as §1, with “3.75” for “130”, “leuprorelin (leuprolide) are” for “ozarelix is”, “6” for “3”, “20” for “30”, “9” for “6”
as §2, with “11.25” for “200”, “leuprorelin (leuprolide) are” for “ozarelix is”, “three” for “3”, “3” for “3 to 6”, “50” for “40”, “3” for “6”

[3] = Example 3: 3.75 mg leuprorelin i.m. single monthly initial dose every 4 weeks, first period 6 months
[4] = Example 4: 11.25 mg leuprorelin i.m. single initial dose once every three months, first period 3 months
[5] = Example 1: 130 mg ozarelix i.m. single monthly initial dose every 4 weeks, first period 3 months
[6] = Example 1: monthly maintenance doses of 30 mg ozarelix i.m. over 6 months, after 130 mg ozarelix initial doses
[7] = Example 2: 200 mg ozarelix i.m. single initial dose once every 3 months, first period 3 to 6 months
[8] = Example 2: monthly maintenance doses of 40 mg ozarelix i.m. over 6 months, after 200 mg ozarelix initial doses
[9] = Example 3: monthly maintenance doses of 20 mg ozarelix i.m. over 9 months, after 3.75 mg leuprorelin initial doses
[10] = Example 4: monthly maintenance doses of 50 mg ozarelix i.m. over 3 months, after 11.25 mg leuprorelin initial dose

Molecule: CCNC(=O)[C@@H]1CCCN1C(=O)[C@H](CCCNC(=N)N)NC(=O)[C@H](CC(C)C)NC(=O)[C@@H](CC(C)C)NC(=O)[C@H](Cc1ccc(O)cc1)NC(=O)[C@H](CO)NC(=O)[C@H](Cc1c[nH]c2ccccc12)NC(=O)[C@H](Cc1c[nH]cn1)NC(=O)[C@@H]1CCC(=O)N1 [leuprorelin]
- testosterone levels during first period [1, 3]: quickly reach castration level
- testosterone levels during first period [1, 4]: quickly reach castration level
- PSA levels decrease during first period [2, 3]: up to 95%
- PSA levels decrease during first period [2, 4]: up to 95%

Molecule: ozarelix
- testosterone levels during first period [1, 5]: quickly reach castration level
- testosterone levels during second period [1, 6]: above 0.5 ng/mL
- testosterone levels during first period [1, 7]: quickly reach castration level
- testosterone levels during second period [1, 8]: above 0.5 ng/mL
- testosterone levels during second period [1, 9]: above 0.5 ng/mL
- testosterone levels during second period [1, 10]: above 0.5 ng/mL
- PSA levels decrease during first period [2, 5]: up to 95%
- PSA levels during second period [2, 6]: remain stably low until the end of the second period
- PSA levels decrease during first period [2, 7]: up to 95%
- PSA levels during second period [2, 8]: remain stably low until the end of the second period
- PSA levels during second period [2, 9]: remain stably low until the end of the second period
- PSA levels during second period [2, 10]: remain stably low until the end of the second period
